The source of these data is ChEMBL document CHEMBL5058564, “EUbOPEN Chemogenomics Library 2 (Incucyte)” (2022).

What all share (type): toxicity, cell-based
The subject of data set [1] is HEK-293T. Nature of the data set: Incucyte cell viability with HEK293T. The note with it: human, 10 µM, compound concentration 10 uM.
Data set [2] concerns U2OS. Nature of the data set: Incucyte cell viability with U2OS. The settings on record: human, 10 µM, compound concentration 10 uM.
For data set [3], the system named is Fibroblast. Nature of the data set: Incucyte cell viability with human fibroblast. The settings on record: 10 µM, compound concentration 10 uM.
Where [4] appears, read: 0 h, replicate number 2, timepoint 0 hours.
Setting [5] is: 6 h, replicate number 1, timepoint 6 hours.
[6] abbreviates: 12 h, replicate number 1, timepoint 12 hours.
Setting [7] is: 12 h, replicate number 2, timepoint 12 hours.
Setting [8] is: 18 h, replicate number 1, timepoint 18 hours.
Setting [9] is: 18 h, replicate number 2, timepoint 18 hours.
Where [10] appears, read: 24 h, replicate number 1, timepoint 24 hours.
[11] abbreviates: 24 h, replicate number 2, timepoint 24 hours.
Setting [12] is: 0 h, replicate number 1, timepoint 0 hours.
The mark [13] stands for this setting: 6 h, replicate number 2, timepoint 6 hours.
Also: unitless GR value; below 1 slowed growth and below 0 cell loss.

In the case of `Cc1sc2c(c1C)C(c1ccc(Cl)cc1)=N[C@@H](CC(=O)NCCCCCCCCNC(=O)COc1cccc3c1C(=O)N(C1CCC(=O)NC1=O)C3=O)c1nnc(C)n1-2` (stereo partly drawn), the “Growth Rate” value is 0.68 in data set [1] (setting [4]); 0.68 in data set [1] (setting [5]); 0.13 in data set [1] (setting [6]); 0.04 in data set [1] (setting [7]); 0.02 in data set [1] (setting [8]); -0.02 in data set [1] (setting [9]). For the same compound, the “Growth Rate” value in data set [1] (setting [10]) was 0.01; in data set [1] (setting [11]), -0.06; in data set [2] (setting [12]) it was -0.31; in data set [2] (setting [5]), 0.38; in data set [2] (setting [6]) it was 0.7; in data set [2] (setting [7]) it was 0.65. Moreover, the “Growth Rate” value was 0.5 in data set [2] (setting [8]); 0.72 in data set [2] (setting [9]); 0.4 in data set [2] (setting [10]); 0.7 in data set [2] (setting [11]); 0.46 in data set [3] (setting [12]); -0.54 in data set [3] (setting [5]). The “Growth Rate” value was -0.38 in data set [3] (setting [13]); -0.48 in data set [3] (setting [6]); -0.2 in data set [3] (setting [7]); -0.47 in data set [3] (setting [8]); -0.01 in data set [3] (setting [9]); -0.37 in data set [3] (setting [10]). Also, the “Growth Rate” value in data set [3] (setting [11]) is reported as -0.03.
In the case of `Nc1nccc(-c2ccn3c(N)nccc23)n1`, the “Growth Rate” value in data set [1] (setting [12]) is given as -0.7; in data set [1] (setting [4]), 0.28; in data set [1] (setting [8]), 0.93; in data set [1] (setting [10]), 0.76; in data set [1] (setting [11]), 1; in data set [2] (setting [12]), 0.63. The “Growth Rate” value in data set [2] (setting [4]) stood at 0.39; in data set [2] (setting [13]), 0.89; in data set [2] (setting [7]) it was 0.92; in data set [2] (setting [9]), 0.85; in data set [2] (setting [10]), 0.98; in data set [2] (setting [11]), 0.82. Besides, the “Growth Rate” value in data set [3] (setting [12]) is recorded as -0.59; in data set [3] (setting [4]), -0.24; in data set [3] (setting [7]), 0.84; in data set [3] (setting [9]), 0.76; in data set [3] (setting [11]), 0.72.
For `Cc1ccc(CNc2ncnc3ccc(-c4ccc(CO)o4)cc23)o1`, the “Growth Rate” value in data set [1] (setting [12]) was 0.47; in data set [2] (setting [12]), -0.73; in data set [3] (setting [12]), -0.65; in data set [3] (setting [4]) it was 0.65.
Take `CCCCCCCCCCCCC/C=C/[C@@H](O)[C@@H](N)COP(=O)(O)O`: the “Growth Rate” value was -0.22 in data set [1] (setting [5]); -0.17 in data set [1] (setting [13]); 0.04 in data set [1] (setting [6]); 0.22 in data set [1] (setting [7]); 0.27 in data set [1] (setting [8]); 0.48 in data set [1] (setting [10]). In addition, the “Growth Rate” value was 0.52 in data set [1] (setting [11]); 0.31 in data set [2] (setting [4]); 0.95 in data set [2] (setting [6]); 0.99 in data set [2] (setting [8]); 0.89 in data set [2] (setting [9]); 0.88 in data set [2] (setting [10]). In addition, the “Growth Rate” value in data set [2] (setting [11]) is reported as 0.89; in data set [3] (setting [5]) it was -0.68; in data set [3] (setting [13]), -0.13; in data set [3] (setting [6]), 0.19; in data set [3] (setting [7]) it was 0.17; in data set [3] (setting [8]), 0.53. The “Growth Rate” value in data set [3] (setting [10]) is given as 0.82; in data set [3] (setting [11]), 0.63.
Turning to `CN(C(=O)/C=C/c1ccoc1)[C@@H]1CC[C@@]2(O)[C@H]3Cc4ccc(O)c5c4[C@@]2(CCN3CC2CC2)[C@H]1O5` [NALFURAFINE], the “Growth Rate” value in data set [1] (setting [12]) is 0.87; in data set [1] (setting [4]) it was 0.49; in data set [1] (setting [7]), 0.91; in data set [1] (setting [11]), 0.91; in data set [2] (setting [12]) it was 0.56; in data set [2] (setting [4]) it was -0.09. Further, the “Growth Rate” value in data set [2] (setting [5]) is reported as 0.82; in data set [2] (setting [7]), 1; in data set [2] (setting [8]), 0.68; in data set [2] (setting [9]), 0.88; in data set [2] (setting [10]), 0.77; in data set [3] (setting [4]), 0.55.
Turning to `C[C@H](CCC(=O)O)[C@H]1CC[C@H]2[C@@H]3CC[C@@H]4C[C@H](O)CC[C@]4(C)[C@H]3CC[C@]12C` [LITHOCHOLIC ACID], the “Growth Rate” value is 0.8 in data set [1] (setting [12]); 0.75 in data set [1] (setting [4]); 0.39 in data set [1] (setting [5]); 0.56 in data set [1] (setting [6]); 0.96 in data set [1] (setting [7]); 0.75 in data set [1] (setting [8]). Also, the “Growth Rate” value in data set [1] (setting [10]) is listed as 0.76; in data set [1] (setting [11]), 0.86; in data set [2] (setting [12]), 0.9; in data set [2] (setting [4]) it was 0.03; in data set [2] (setting [13]), 0.51; in data set [2] (setting [6]) it was 0.79. For the same compound, the “Growth Rate” value is 0.77 in data set [2] (setting [7]); 0.78 in data set [2] (setting [8]); 0.79 in data set [2] (setting [9]); 0.96 in data set [2] (setting [10]); 0.75 in data set [2] (setting [11]); 0.62 in data set [3] (setting [4]). The “Growth Rate” value in data set [3] (setting [5]) is reported as 0.65; in data set [3] (setting [6]) it was 0.42; in data set [3] (setting [7]) it was 0.98; in data set [3] (setting [8]) it was 0.36; in data set [3] (setting [9]), 0.98; in data set [3] (setting [10]) it was 0.22. The “Growth Rate” value in data set [3] (setting [11]) is reported as 0.78.
Regarding `CC(=O)c1ccc2c(c1)[C@@H]1C=CC[C@@H]1[C@H](c1cc3c(cc1Br)OCO3)N2`, the “Growth Rate” value was -0.31 in data set [1] (setting [5]); -0.36 in data set [1] (setting [13]); 0.01 in data set [1] (setting [6]); -0.05 in data set [1] (setting [7]); -0.14 in data set [1] (setting [8]); -0.06 in data set [1] (setting [9]). Besides, the “Growth Rate” value in data set [1] (setting [10]) is -0.12; in data set [1] (setting [11]) it was -0.02; in data set [2] (setting [12]), 0.33; in data set [2] (setting [13]), 0; in data set [2] (setting [6]) it was 0.01; in data set [2] (setting [7]) it was -0.23. In addition, the “Growth Rate” value was 0.03 in data set [2] (setting [8]); -0.33 in data set [2] (setting [9]); -0.17 in data set [2] (setting [10]); -0.31 in data set [2] (setting [11]); -0.85 in data set [3] (setting [5]); -0.8 in data set [3] (setting [13]). Besides, the “Growth Rate” value in data set [3] (setting [6]) was -0.78; in data set [3] (setting [7]) it was -0.47; in data set [3] (setting [8]), -0.76; in data set [3] (setting [9]), -0.23; in data set [3] (setting [10]) it was -0.54; in data set [3] (setting [11]), -0.18.
`CC(F)(F)CN1CCOc2c(nn(-c3ccccc3Cl)c2-c2ccc(Cl)cc2)C1=O`: the “Growth Rate” value is given as 0.82 in data set [1] (setting [7]); -1 in data set [2] (setting [4]); -0.37 in data set [3] (setting [5]); 0.94 in data set [3] (setting [13]); 0.01 in data set [3] (setting [6]); 0.22 in data set [3] (setting [7]). In addition, the “Growth Rate” value is -0.21 in data set [3] (setting [8]), 0.75 in data set [3] (setting [9]), -0.09 in data set [3] (setting [10]) and 0.06 in data set [3] (setting [11]).
Take `CN(C(=O)c1ccccc1)c1cc(N(C)c2ccc3c(c2)CCc2ccc(C(=O)NCCN4CCOCC4)cc2C3=O)ccc1F` [FM-743]: the “Growth Rate” value was -0.43 in data set [1] (setting [5]); 0 in data set [1] (setting [13]); -0.34 in data set [1] (setting [6]); -0.27 in data set [1] (setting [7]); -0.33 in data set [1] (setting [8]); -0.15 in data set [1] (setting [9]). The “Growth Rate” value in data set [1] (setting [10]) is -0.25; in data set [1] (setting [11]), -0.11; in data set [2] (setting [12]), 0.89; in data set [2] (setting [4]), 0.49; in data set [2] (setting [13]), 0.79; in data set [2] (setting [7]), 0.72. Further, the “Growth Rate” value is on record as 0.81 in data set [2] (setting [8]); 0.66 in data set [2] (setting [9]); 0.74 in data set [2] (setting [10]); 0.53 in data set [2] (setting [11]); 0.51 in data set [3] (setting [12]); 0.69 in data set [3] (setting [4]). Also, the “Growth Rate” value is -0.57 in data set [3] (setting [5]); -0.35 in data set [3] (setting [13]); -0.68 in data set [3] (setting [6]); -0.23 in data set [3] (setting [7]); -0.66 in data set [3] (setting [8]); -0.08 in data set [3] (setting [9]). For the same compound, the “Growth Rate” value was -0.58 in data set [3] (setting [10]) and -0.28 in data set [3] (setting [11]).
Take `Cl.Clc1cccc(Cl)c1NC1=NCCN1` [CLONIDINE HYDROCHLORIDE]: the “Growth Rate” value in data set [1] (setting [12]) came to 0.99; in data set [1] (setting [4]), 0.43; in data set [1] (setting [5]), 0.49; in data set [1] (setting [6]), 0.74; in data set [1] (setting [7]), 0.54; in data set [1] (setting [8]) it was 0.59. For the same compound, the “Growth Rate” value is recorded as 0.58 in data set [1] (setting [9]); 0.85 in data set [1] (setting [10]); 0.63 in data set [1] (setting [11]); 0.55 in data set [2] (setting [4]); 0.87 in data set [2] (setting [5]); 0.91 in data set [2] (setting [13]). Also, the “Growth Rate” value in data set [2] (setting [8]) is 1; in data set [3] (setting [12]) it was 0.82; in data set [3] (setting [5]), 0.94; in data set [3] (setting [13]), 0.45; in data set [3] (setting [7]), 0.46; in data set [3] (setting [9]) it was 0.62. The “Growth Rate” value in data set [3] (setting [10]) is on record as 0.9; in data set [3] (setting [11]), 0.47.
